The structures appear in SMILES notation. pEC50: −log10 of the molar value.

One assay has as its target T1, ubiquilin 4 (Homo sapiens, UniProt Q9NRR5).
T1 construct: endogenous in cells; host or cells: HEK-293T lysate
Kind of assay: Cellular thermal shift assay (CETSA) in HEK-293T lysate. The format is binding. The following applies: 100 μM Cbz-B3A, lysate incubated 30 min. How it is done:
CETSA was performed as previously described. Briefly, HEK-293T cells were lysed in DPBS with Roche complete protease inhibitor by 3 quick freeze thaws, centrifuged at 20,000 g for 20 min at 4° C., and the supernatant was adjusted to 4 mg/mL. Lysate was incubated with compound for 30 min and heated to different temperatures in a thermal cycler for 3 min, then cooled to room temperature for 3 min. All samples were then centrifuged at 20,000 g for 20 min at 4° C. and a western blot was run on the supernatant.

Another assay deals with MOLT-4. Description: NCI-60 DTP Human Tumor Cell Line Screen, MOLT-4. Type of assay: cell-based. The following applies: 10 μM, 48 h. The method, then: (§1) Screen was conducted as previously described, performed at Developmental Therapeutics Program NCI/NIH.
In the next assay the test system is SR. Description: NCI-60 DTP Human Tumor Cell Line Screen, SR. The note with it: 10 μM, 48 h. The format is cell-based. The method, then:
as §1

Assay [1] concerns the target T2, recombinant firefly luciferase (Photinus pyralis, UniProt P08659).
T2 construct: purchased Promega
Description: Recombinant luciferase assay. Type of assay: biochemical. The note with it: 100 μM compound, 10 min incubation. How it is done: (§2) Stably transduced luciferase HEK-293T cells were plated in 96-well plates 24 h prior to treatment with 100 μM of Cbz-B3A, amine-B3A, acetyl-B3A, and Cbz-acetyl. After 4 h, cells were harvested and measured with Luciferase Assay System with Reporter Lysis Buffer from Promega according to the manufacturer's protocol. Before the addition of luciferin, protein concentration was measured by removing 2 μl of lysate from each well and adding it to diluted Bio-Rad Protein Assay Dye Reagent Concentrate, and the absorbance was measured at OD595. The protein concentration was used to normalize luciferase signal. For translation assays, cells were pretreated for 15 min with 100 μg/mL cycloheximide or 6 μM bortezomib. For the recombinant luciferase assay, Quantilum Recombinant Luciferase (Promega) was diluted 1:250,000 in reporter lysis buffer with 1 mg/mL BSA then mixed 1:1 with 200 μM compound in the same buffer for a final dilution of 1:500,000 and 100 μM compound in 20 μL. This was incubated for 10 min at room temperature then measured with Luciferase Assay System with Reporter Lysis Buffer from Promega according to the manufacturer's protocol.

A further assay deals with HEK-293T cells. Description: CellTiter-Glo proliferation, HEK-293T. The format is cell-based. The following applies: Homo sapiens, 48 h. How it is done: To determine cellular growth, CellTiter-Glo luminescent cell viability assay (Promega) was used per the manufacturer's instruction. To determine cytotoxicity, LDH release was measured with the LDH Cytotoxicity Assay Kit (Pierce) according to the manufacture's protocol. For 4 h assays, 96 well plates were seeded at 75,000 cells/mL for BaF3/p210 cells or K562 cells. For HEK-293T cells, 10,000 cells/well were plated 24 h before treatment. Cells were treated for 4 h at 37° C. and […] was removed from every well and used in the LDH Cytotoxicity assay per the manufacturer's protocol. For 48 h assays, 7,500 cells/mL of BaF3/p210 or K562 cells were incubated with compound at 37° C. for 48 h (200 μL/well). For HEK-293T cells, 1,000 cells/well were plated 24 h prior to compound treatment. After treatment, 50 μL was removed from each well for the LDH assay for all cell lines and 100 μL of mixed cells were removed and used with the CellTiter-Glo kit for K562 and BaF3/p210 cells. For HEK-293T cells, wells were treated directed with the CellTiter-Glo kit. Cytotoxicity or viability was measured by luminosity and absorbance on a microplate reader.

The test system of the next assay is mTOR. Description: mTOR level and mTOR phosphorylation immunoblot in HEK-293T cells. The format is cell-based. The note with it: 10 μM, 4 h. How it is done: (§3) Quantification of western blots was performed with ImageJ. Cells were lysed in RIPA buffer (1% NP-40, 1% NaDeoxycholate, 0.1% SDS, 10 mM TrisCl, 10 mM β-glycerophosphate, 10 mM Na pyrophosphate, 50 mM NaF, 200 μM Na vanadate, 1 mM EDTA, 500 μM EGTA, 1% benzonase, and supplemented with complete (Roche Diagnostics) protease inhibitors).
(In western blotting, separated proteins are transferred to a membrane and probed.)

In assay [2] the test system is firefly luciferase. Description: Luciferase assay in stably transduced luciferase HEK-293T cells. Type of assay: cell-based. The method, then: Firefly luciferase and firefly luciferase-eDHFR were cloned into pBABE-puro vector which was a gift from Hartmut Land & Jay Morgenstern & Bob Weinberg (Addgene plasmid #1764). pBABE-puro-luciferase was co-transfected with VSV-G into GP2-293 cells (Retro-X Universal Packaging System, Clonetech, Mountain View, Calif.) with TransIT-2020 (MirusBio) according to TransIT-2020's manufacture's protocol. After 48 h, viral supernatant was harvested, spun down, filtered with a […] syringe filter, and added to HEK-293T supplemented with 8 μg/mL polybrene. After 4 h of infection, the media was replaced with fresh media. 48 h later, media was replaced with media containing 3 μg/mL puromycin. Media was replaced with fresh media containing puromycin every 3-4 days. After 2 weeks of puromycin selection, the cells were grown out from single cell colonies and screened for luciferase expression.
as §2

Another assay deals with K562 cells. Description: NCI-60 DTP Human Tumor Cell Line Screen, K562. The following applies: 48 h, read-out: inhibition of proliferation, K562. The format is cell-based. The method, then:
as §1

Assay [3] has as its system firefly luciferase. Description: Luciferase assay in stably transduced luciferase HEK-293T cells. The format is cell-based. The note with it: 100 μM Cbz-B3A, 4 h, anti-HA immunoblot.
Assay [4] concerns mTORC2 catalyzed phosphorylation of Akt. Kind of assay: Akt phosphorylation immunoblot (mTORC2) in HEK-293T cells. Type of assay: cell-based. The note with it: HEK-293T cells treated with Cbz-B3A. The method, then:
as §3

The next assay deals with TSC2. Kind of assay: TSC2 level immunoblot in HEK-293T cells. The format is cell-based. The following applies: 10 μM, 4 h; p=0.19 vs DMSO. How it is done: as §3
For the next assay, the system named is Rheb. Kind of assay: Rheb level immunoblot in HEK-293T cells. The note with it: 10 μM, 4 h; p=0.04 vs DMSO. Type of assay: cell-based. The method, then:
as §3

A further assay deals with LC3 A/B II. Description: LC3 A/B II immunoblot (autophagy) in HEK-293T cells. Type of assay: cell-based. The note with it: Cbz-B3A 10 μM, rapamycin 20 nM, 4 h. How it is done: as §3
Assay [5] deals with 4EBP1 phosphorylation by mTORC1. Kind of assay: 4EBP1 phosphorylation immunoblot in HEK-293T cells. The format is cell-based. The following applies: 4 h. How it is done:
as §3

T2 sequence (P08659 whole entry): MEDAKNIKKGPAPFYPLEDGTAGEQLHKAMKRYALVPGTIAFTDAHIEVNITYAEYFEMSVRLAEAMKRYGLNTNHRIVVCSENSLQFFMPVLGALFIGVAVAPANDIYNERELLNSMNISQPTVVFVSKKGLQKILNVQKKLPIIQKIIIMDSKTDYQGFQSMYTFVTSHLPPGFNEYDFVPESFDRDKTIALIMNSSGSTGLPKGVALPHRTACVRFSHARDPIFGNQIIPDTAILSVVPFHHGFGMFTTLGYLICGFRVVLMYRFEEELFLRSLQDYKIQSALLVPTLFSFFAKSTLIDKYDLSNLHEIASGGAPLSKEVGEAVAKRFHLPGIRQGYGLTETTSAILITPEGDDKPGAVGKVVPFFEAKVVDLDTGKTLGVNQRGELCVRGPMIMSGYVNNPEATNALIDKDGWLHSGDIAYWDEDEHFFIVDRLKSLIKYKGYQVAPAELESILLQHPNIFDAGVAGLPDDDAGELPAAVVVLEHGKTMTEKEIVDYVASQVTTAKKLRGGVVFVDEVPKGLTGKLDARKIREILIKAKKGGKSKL
T1 sequence (Q9NRR5 whole entry): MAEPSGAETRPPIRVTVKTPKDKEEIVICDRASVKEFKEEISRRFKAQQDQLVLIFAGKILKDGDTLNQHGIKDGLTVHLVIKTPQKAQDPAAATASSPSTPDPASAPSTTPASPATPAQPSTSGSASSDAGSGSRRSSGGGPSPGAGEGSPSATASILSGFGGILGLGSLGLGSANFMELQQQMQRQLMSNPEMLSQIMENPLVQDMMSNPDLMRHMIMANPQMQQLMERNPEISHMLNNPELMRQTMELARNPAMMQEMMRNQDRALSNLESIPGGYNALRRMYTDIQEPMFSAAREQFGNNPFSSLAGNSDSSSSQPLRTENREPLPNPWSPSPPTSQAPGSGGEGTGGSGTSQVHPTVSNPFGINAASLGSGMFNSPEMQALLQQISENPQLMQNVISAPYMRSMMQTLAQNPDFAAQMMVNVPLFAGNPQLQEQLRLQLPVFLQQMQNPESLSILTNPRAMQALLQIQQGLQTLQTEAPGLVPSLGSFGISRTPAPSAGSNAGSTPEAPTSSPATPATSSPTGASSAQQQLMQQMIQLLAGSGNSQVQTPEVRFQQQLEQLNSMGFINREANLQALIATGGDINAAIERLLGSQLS

Consider `CC(C)(C)OC(=O)/N=C(\NCCC[C@H](NC(=O)OC(C)(C)C)C(=O)NCCCCCCNC(=O)OCc1ccccc1)NC(=O)OC(C)(C)C` [Cbz-B3A], for which the “melting temperature shift of ubiquilin 4” value on ubiquilin 4 is recorded as “clear shift to a lower melting temperature”. In addition, in the assay with MOLT-4, the “decrease in proliferation, MOLT-4” value is on record as 80%. Also, in the assay with SR, the “decrease in proliferation, SR” value is recorded as 83%. Further, the “recombinant firefly luciferase signal (enzymatic activity)” value in assay [1] is listed as “no reduction of signal”. This molecule yielded an inhibition at 10 µM in the assay with HEK-293T cells of 64%. In the assay on mTOR, the “Ser2481 phosphorylation of mTOR” value was “no change in Ser2481 phosphorylation”, the “levels of mTOR” value is on record as “did not change” and the “phosphorylation of mTOR at Ser2448” value is on record as “only a small effect”. In addition, the “firefly luciferase signal, co-treatment with bortezomib compared to bortezomib alone” value in the assay with firefly luciferase [2] (6 μM bortezomib pretreatment 15 min, then 100 μM Cbz-B3A 4 h) is recorded as “decreased”. Further, the “luciferase activity, co-treatment with cycloheximide” value with firefly luciferase [2] (100 μg/mL cycloheximide pretreatment 15 min, then 100 μM Cbz-B3A 4 h) is “no further decrease in luciferase activity”. The “wild type luciferase signal” value in the assay with firefly luciferase [2] (HEK-293T cells expressing HA-luciferase, 100 μM, 4 h) is recorded as “decreased the wild type luciferase signal”. Moreover, the inhibition at 10 µM in the assay with K562 cells amounted to 39%. The “decrease in amount of luciferase protein” value with firefly luciferase [3] was “approximately 40%”. The “Akt phosphorylation at Ser473” value in assay [4] was “No decrease in Akt phosphorylation”. For the same molecule, the “amount of TSC2” value in the assay with TSC2 is recorded as “appeared to increase the amount of TSC2”. Moreover, in the assay with Rheb, the “amount of Rheb” value is given as “increased the amount of Rheb”. Further, in the assay on LC3 A/B II, the “LC3 A/B II (autophagy)” value is on record as “increased LC3 A/B II to equivalent levels as rapamycin”. The “4EBP1 phosphorylation (hyper- vs hypo-phosphorylated band)” value in assay [5] (Cbz-B3A 10 μM, Cbz-acetyl 10 μM, rapamycin 20 nM) is “clear shift from hyper-phosphorylation to hypo-phosphorylation”. The pEC50 in [5] (Homo sapiens, HEK-293T, read-out: EC50 of inhibition of 4EBP1 phosphorylation) is ~5.70.

By pEC50 is commonly meant −log10 of the EC50, conventionally taken in molar units.

The values above are taken from US20180327364A1, “MTOR INHIBITORS AND METHODS OF USE THEREOF” (Brandeis University, priority 2015, published 2018).
